Here are results for eight molecules from ChEMBL document CHEMBL4842305, “Bifunctional Doscadenamides Activate Quorum Sensing in Gram-Negative Bacteria and Synergize with TRAIL to Induce Apoptosis in Cancer Cells” (2021).

Each structure is given as a SMILES string. Active and inactive are the calls of the source. The rule behind the calls is not given here.

Experiment [1] deals with MDA-MB-231. The experiment in a line: Synergistic anticancer activity against human MDA-MB-231 cells assessed as reduction in cell viability at 50 uM pretreated for 3 hrs followed by TRAIL stimulation measured after 24 hrs. The experiment is classed as functional. The note with it: time 27 hrs. The arrangement: unit not given here.
Experiment [2] has as its system MDA-MB-231. The experiment in a line: Synergistic anticancer activity against human MDA-MB-231 cells assessed as reduction in cell viability at 25 uM pretreated for 3 hrs followed by TRAIL stimulation measured after 24 hrs. The experiment is classed as functional. Set-up: unit not given here. The note with it: time 27 hrs.
Experiment [3] can be described thus: Activation of quorum sensing system in Pseudomonas aeruginosa JP1 assessed as increase in pyocyanin production at 100 uM measured after 6 hrs relative to control. The following applies: for fold change (FC): filed as activator.
Experiment [4] deals with Vibrio harveyi. The experiment is described as follows: Activation of quorum sensing in Vibrio harveyi upto 100 uM after 7 hrs by luminescence method. The note with it: filed as activator, dose microM <=100, time 7.0 hrs.
In experiment [5] the test system is Vibrio harveyi. The experiment in a line: Activation of quorum sensing in Vibrio harveyi from 10 to 200 uM after 7 hrs by luminescence method. The note with it: filed as activator, dose 10-200 µM.
The test system of experiment [6] is Pseudomonas aeruginosa. The experiment is described as follows: Binding affinity to Pseudomonas aeruginosa LasR D73N mutant expressed in Escherichia coli at 100 uM measured after 6 hrs by luminescence assay. The following applies: filed as activator.
Experiment [7] deals with T1, Transcriptional activator protein LasR (Pseudomonas aeruginosa (strain ATCC 15692 / PAO1 / 1C / PRS 101 / LMG12228)) (UniProt P25084).
T1 sequence (whole entry): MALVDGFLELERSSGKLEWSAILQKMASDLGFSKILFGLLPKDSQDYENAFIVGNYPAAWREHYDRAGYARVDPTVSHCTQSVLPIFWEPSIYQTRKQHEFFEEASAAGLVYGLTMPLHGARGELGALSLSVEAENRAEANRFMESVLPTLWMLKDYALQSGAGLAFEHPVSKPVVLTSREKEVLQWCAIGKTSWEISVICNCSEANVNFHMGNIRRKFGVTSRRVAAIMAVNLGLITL
The experiment is described as follows: Binding affinity to wild type Pseudomonas aeruginosa LasR expressed in Escherichia coli at 100 uM measured after 6 hrs by luminescence assay. The note with it: filed as activator.

Experiment [8] relates to Pseudomonas aeruginosa. The experiment is described as follows: Binding affinity to Pseudomonas aeruginosa LasR W60F mutant expressed in Escherichia coli at 100 uM measured after 6 hrs by luminescence assay. The following applies: filed as activator.
For experiment [9], the system named is Pseudomonas aeruginosa. The experiment is described as follows: Binding affinity to Pseudomonas aeruginosa LasR Y56F mutant expressed in Escherichia coli at 100 uM measured after 6 hrs by luminescence assay. The following applies: filed as activator.
The test system of experiment [10] is MDA-MB-231. The experiment is described as follows: Induction of apoptosis in human MDA-MB-231 cells assessed as increase in cleaved PARP level at 50 uM by Western blot analysis. The class given is functional, cell-based. Background: A western blot detects proteins with antibodies after separation by electrophoresis.

For the molecule `CCCCCC[C@@H](C)C(=O)NCCCC[C@H]1C(OC)=CC(=O)N1C(=O)[C@H](C)CCCCCC`, the results for the Activity with MDA-MB-231 [1] and with MDA-MB-231 [2] were 0.23 and 0.31, respectively.

In the case of `C=CCCCC[C@@H](C)C(=O)N1C(=O)C=C(OC)[C@@H]1CCCCNC(=O)OC(C)(C)C`, in experiment [3], the fold change (FC) worked out at 4. The Activity with MDA-MB-231 [1] is given as 0.02; in the experiment with MDA-MB-231 [2], 0.06.

For the molecule `C=CCCCC[C@@H](C)C(=O)NCCCC[C@H]1C(OC)=CC(=O)N1C(=O)[C@H](C)CCCCC=C`, the result in the experiment with Vibrio harveyi [4] was Active. For the same molecule, the Activity with MDA-MB-231 [1] was determined as 0.08; with MDA-MB-231 [2] it was 0.31.

For `C#CCCCC[C@@H](C)C(=O)NCCCC[C@@H]1NC(=O)C=C1OC`, the result in experiment [3] was inactive. Further, the results for the Activity in the experiment with MDA-MB-231 [1] and in the experiment on MDA-MB-231 [2] were 0 and 0.02, respectively.

For `C#CCCCC[C@@H](C)C(=O)N1C(=O)C=C(OC)[C@@H]1CCCCNC(=O)OC(C)(C)C`, in experiment [3], the fold change (FC) came out at 3. The outcome in the experiment with Vibrio harveyi [5] was Active. Moreover, the Activity was 0.05 in the experiment with MDA-MB-231 [1] and 0.18 in the experiment with MDA-MB-231 [2].

Take `C#CCCCC[C@@H](C)C(=O)NCCCC[C@H]1C(OC)=CC(=O)N1C(=O)[C@H](C)CCCCC#C`: the result (in the experiment with Pseudomonas aeruginosa [6]; with Vibrio harveyi [5]; in [7]; in the experiment with Pseudomonas aeruginosa [8]; in the experiment on Pseudomonas aeruginosa [9]) was Active. The fold change (FC) in experiment [3] amounted to 3. The Activity amounted to 0.01 in the experiment with MDA-MB-231 [1] and 0.08 in the experiment on MDA-MB-231 [2].

As to `CCCCCC[C@@H](C)C(=O)N1C(=O)C=C(OC)[C@@H]1CCCCNC(=O)OC(C)(C)C`, in the experiment with MDA-MB-231 [10], the outcome was Active. In addition, the fold change (FC) in experiment [3] is 5. The results for the Activity in the experiment with MDA-MB-231 [1] and in the experiment on MDA-MB-231 [2] were 0.14 and 0.26, respectively.

Consider `CCCCCCCCCC(=O)CC(=O)N[C@H]1CCOC1=O`, for which the figures for the Activity with MDA-MB-231 [1] and in the experiment with MDA-MB-231 [2] were -0.07 and 0.05, respectively.
